Results published in paper PMC12592319, “Predicting Food Effect On Oral Drug Absorption For Solubility-Epithelial Membrane Permeation-Limited Cases With Bile Micelle Solubilization” (Pharmaceutical Research, 2025).
≈ marks a conversion by molar mass, not a printed value. Where two headings read alike, the source gives them in different places.

Tests used:
[1] = FaRLS diagnosis by Fa equation and Peff equation (Table S3, dose number); settings: for Dose number, Fasted / Dose number, Fed: clinical dose; for Dose number, Fasted: Sdissolv in FaSSIF; for Dose number, Fed: Sdissolv in FeSSIF
[2] = μFLUX dissolution-permeation flux experiment; settings: for fraction unbound: pH 6.5, fu, calculated by Eq. (9) (Sdissolv,u/Sdissolv); for kdiss: calculated from the initial dissolution rate in μFLUX; for CD,final: measured after filtration, 1/10 of clinical dose, mean ± S.D., N = 3; for Pep,u,μFLUX: Peff,μFLUX/fu; for JμFLUX: average of 90 to 120 min (pranlukast 210 to 240 min); for Peff,μFLUX: calculated based on CD,final
[3] = cited from earlier work
[4] = Octanol-water partition/distribution coefficient (logPoct, logDoct); assay type: physicochemical; settings: calculated from logPoct and pKa using the Henderson-Hasselbalch equation
Text: Table II Physicochemical Properties and Caco-2 Permeability of Model Drugs | column: logDoct,pH 6.5^c

[5] = Fed; assumed to be the same as Caco-2 Papp; cited from earlier work
[6] = pKa measurement (SiriusT3, UV-metric/pH-metric titration); assay type: physicochemical; settings: ionic strength 0.168 mol/L, 37°C
Method: The pKa measurements were performed using a SiriusT3 automatic titrator, with a spectrometric (UV-metric) or titration (pH-metric) method. The UV-metric method used a fiber optic dip probe, a deuterium lamp UV light source, and a photodiode array detector to capture the absorption spectra of a sample solution over the course of three titrations, across the pH range 2.0–12.0. […] Titrations were carried out under a controlled temperature of 37 ± 0.2°C.
SiriusT3 software v2.0 was used to apply principal component analysis to the spectral data to resolve the molar absorptivity spectra of each sample species and determine the psKa values of the compounds in the co-solvent. The pKa values under aqueous conditions were calculated from the co-solvent data using the Yasuda-Shedlovsky extrapolation method.
Additional potentiometric titrations were performed for each drug, which confirmed that no additional non-UV active pKas were present within the titration pH range.

[7] = clinical AUC ratio fed/fasted, humans; cited from earlier work
[8] = Equilibrium solubility measurement (shake-flask) in blank FaSSIF, FaSSIF, FeSSIF; assay type: physicochemical; settings: for solubility at 72 h: thermodynamic from solid, pH 6.5, 37°C, mean ± S.D., N = 3
Method: A shake-flask method was used for equilibrium solubility measurement. Each drug (10 mg) was added to the 15 mL test tube. Blank FaSSIF (28.7 mM phosphate buffer, pH 6.5 adjusted by NaOH), FaSSIF (3 mM TC, 0.75 mM EL in blank FaSSIF), or FeSSIF (15 mM TC, 3.75 mM EL in blank FaSSIF) was added. The test tube was placed horizontally in a reciprocal shaker. After shaking for 72 h at 37°C (at 90 rpm, motion width: 2.5 cm), the sample was filtered (hydrophilic PVDF, φ = 4.0 mm, pore size: 0.22 µm, Merck). The first few droplets were discarded to avoid filter adsorption. The concentration of each drug was measured by UV absorbance. […] After measuring the final pH (9615S-10D Standard ToupH electrode (HORIBA Advanced Techno Co., Ltd., Kyoto, Japan)), the residual particles were collected by vacuum filtration and analyzed by powder X-ray diffraction (PXRD) (Supplemental Information Figure S1).

Caco-2 = test system: Caco-2; set-up: method as in PMID 9795088, PMID 10767597, PMID 15032311; settings: cited from earlier work
[9] = bile micelles in FaSSIF, FaSSIF
[10] = bile micelles in FeSSIF, FeSSIF
[11] = FeSSIF/FaSSIF, μFLUX dose 1/10 of the clinical dose
[12] = FaSSIF, read-out: Solubility, FaSSIF
[13] = FeSSIF, read-out: Solubility, FeSSIF
[14] = blank FaSSIF, read-out: Solubility, Blank FaSSIF

Question: For `C#C[C@]1(O)CC[C@H]2[C@@H]3CCC4=Cc5oncc5C[C@]4(C)[C@H]3CC[C@@]21C` [Danazol], which “Dose number, Fasted” value [1] is on record?
Answer: 43

Question: What about the “Dose number, Fed” value [1] of the same molecule?
Answer: 14

Question: And the fraction unbound [2, 9]?
Answer: 0.011

Question: What about the fraction unbound [2, 10] of the same molecule?
Answer: 0.0043

Question: And the logPoct [3]?
Answer: 4.5

Question: And the “logDoct,pH 6.5” value [4]?
Answer: 4.5

Question: Which logPoct [3] does the source give for `Cc1cn(-c2cc(NC(=O)c3ccc(C)c(Nc4nccc(-c5cccnc5)n4)c3)cc(C(F)(F)F)c2)cn1.Cl` [nilotinib HCl] here?
Answer: > 5

Question: Which Dn ([1]; Fasted) does the source give for `CCc1c(Cl)c(O)c(Cl)c(O)c1C(=O)O[C@H]1[C@H](O)[C@H](OC)[C@H](OC/C2=C\C=C\C[C@H](O)/C(C)=C/[C@H](CC)[C@@H](O[C@@H]3OC(C)(C)[C@@H](OC(=O)C(C)C)[C@H](O)[C@@H]3O)/C(C)=C/C(C)=C/C[C@@H]([C@@H](C)O)OC2=O)O[C@@H]1C` [Fidaxomicin] here?
Answer: 3.7

Question: And the Do ([1]; Fasted)?
Answer: 20

Question: What about the Pep ([1]; Fasted) of the same molecule?
Answer: 0.055 10^-6 cm/s

Question: What about the “Pep'” value ([1]; Fasted) of the same molecule?
Answer: 0.55 10^-6 cm/s

Question: And the Dn ([1]; Fed)?
Answer: 9.3

Question: And the Do ([1]; Fed)?
Answer: 7.2

Question: And the Pep ([1]; Fed)?
Answer: 0.024 10^-6 cm/s

Question: What about the “Pep'” value ([1]; Fed) of the same molecule?
Answer: 0.24 10^-6 cm/s

Question: And the “Dose number, Fasted” value [1]?
Answer: 20

Question: And the “Dose number, Fed” value [1]?
Answer: 7

Question: What about the fraction unbound ([1]; human, bile micelles in FaSSIF, pH 6.5) of the same molecule?
Answer: 0.6

Question: And the “Pep,u” value [5]?
Answer: 0.092 10^-6 cm/s

Question: What about the kdiss ([2]; Fasted) of the same molecule?
Answer: 0.0002967 s⁻¹

Question: What about the “Pep,u,μFLUX less in the fed condition than in the fasted condition” value ([2]; FeSSIF vs FaSSIF) of the same molecule?
Answer: about 40%

Question: What about the “Ratio (fed/fasted) CD,final” value [2, 11] of the same molecule?
Answer: 3.1

Question: And the “Ratio (fed/fasted) JμFLUX” value [2, 11]?
Answer: 0.81

Question: And the kdiss ([2]; Fed)?
Answer: 0.0007389 s⁻¹

Question: And the fraction unbound [2, 9]?
Answer: 0.6

Question: What about the fraction unbound [2, 10] of the same molecule?
Answer: 0.26

Question: And the “CD,final” value ([2]; donor FaSSIF pH 6.5)?
Answer: 72 ± 0 µg/mL

Question: What about the “Pep,u,μFLUX” value ([2]; donor FaSSIF) of the same molecule?
Answer: 17 ± 2 10^–5 cm/s

Question: What about the JμFLUX ([2]; donor FaSSIF) of the same molecule?
Answer: 7.4 ± 0.7 10–^3 μg/cm^2/s

Question: And the “Peff,μFLUX” value ([2]; donor FaSSIF)?
Answer: 10 ± 1 10^–5 cm/s

Question: What about the “CD,final” value ([2]; donor FeSSIF pH 6.5) of the same molecule?
Answer: 220 ± 0^ h μg/mL

Question: What about the “Pep,u,μFLUX” value ([2]; donor FeSSIF) of the same molecule?
Answer: 10 ± 1 10^–5 cm/s

Question: And the JμFLUX ([2]; donor FeSSIF)?
Answer: 6.0 ± 0.7 10–^3 μg/cm^2/s

Question: And the “Peff,μFLUX” value ([2]; donor FeSSIF)?
Answer: 2.7 ± 0.3 10^–5 cm/s

Question: And the “Time after which CD reached a plateau” value ([2]; donor solution)?
Answer: 20 min

Question: And the pKa ([6]; acidic pKa, read-out: pKa (A))?
Answer: 5.15

Question: What about the logPoct [3] of the same molecule?
Answer: 3.7

Question: What about the “logDoct,pH 6.5” value [4] of the same molecule?
Answer: 2.3

Question: And the “Ratio (fed/fasted) AUCr” value [7]?
Answer: 1.0

Question: What about the solubility at 72 h [8, 12] of the same molecule?
Answer: 77 ± 1 µg/mL (≈ 72.8 µM)

Question: What about the solubility at 72 h [8, 13] of the same molecule?
Answer: 178 ± 2 µg/mL (≈ 168 µM)

Question: What about the “Ratio (fed/fasted) Sdissolv” value ([8]; FeSSIF/FaSSIF, corresponds to Fafed/Fafasted predicted by Eq. (18)) of the same molecule?
Answer: 2.3

Question: And the solubility at 72 h [8, 14]?
Answer: 46 ± 1 µg/mL (≈ 43.5 µM)

Question: For `CO[C@H]1/C=C/O[C@@]2(C)Oc3c(C)c(O)c4c(O)c(c5c(nc6cc(C)ccn65)c4c3C2=O)NC(=O)/C(C)=C\C=C\[C@H](C)[C@H](O)[C@@H](C)[C@@H](O)[C@@H](C)[C@H](OC(C)=O)[C@@H]1C` [Rifaximin], which pKa ([6]; acidic pKa, read-out: pKa (A)) is on record?
Answer: < 2

Question: And the pKa ([6]; basic pKa, read-out: pKa (B))?
Answer: 8.29

Question: What about the “logDoct,pH 6.5” value [4] of the same molecule?
Answer: 2.6

Question: And the “Caco-2 Papp” value (Caco-2)?
Answer: 1 [55] 10^–6 cm/s

Question: What about the solubility at 72 h [8, 12] of the same molecule?
Answer: 3.4 µg/mL (≈ 4.33 µM)

Question: And the solubility at 72 h [8, 13]?
Answer: 12 µg/mL (≈ 15.3 µM)

Question: And the solubility at 72 h [8, 14]?
Answer: 1.8 µg/mL (≈ 2.29 µM)

Question: Which logPoct [3] does the source give for `Cc1cc(C#N)cc(C)c1Oc1nc(Nc2ccc(C#N)cc2)nc(N)c1Br` [etravirine] here?
Answer: > 5
